Biological target: T1, Ba/F3 cell EGFR Exon20 ins NPH (Homo sapiens, UniProt P00533, INS773NPH)
T1 construct: expressed in transfected cells; host or cells: Ba/F3
Assay: Ba/F3 cell proliferation suppression, EGFR Exon20 ins NPH
Format: cell-based
Conditions: GI50 class; Ba/F3 cell line with NPH inserted at Exon20 of EGFR; 72 hours
How it was run: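 Seed 3000–5000 cells/well; after 24 h add compound (12 conc., 0.3 nM–50 um final); incubate 72 h; add CellTiter-Glo, 10 min room temperature; read luminescence; GI50 from % growth vs control, triplicate.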

SMILES	Ba/F3 (NPH) Activity
C=CC(=O)Nc1cc(Nc2cc(N3OCC[C@@H]3c3ccc(F)cc3F)ncn2)c(OC)cc1N1CCC(N2CCN(C3CCN(C)CC3)CC2)CC1 [compound 430, N-(5-((6-((R)-3-(2,4-difluorophenyl)isoxazolidine-2-yl)pyrimidine-4-yl)amino)-4-methoxy-2-(4-(4-(1-methylpiperidine-4-yl)piperazine-1-yl)piperidine-1-yl)phenyl)acrylamide]	A (GI50 < 50 nM)
C=CC(=O)Nc1cc(Nc2cc(N3OCC[C@@H]3c3cc(F)cc(F)c3)ncn2)c(OC)cc1N1CCC(N2C[C@H]3CC[C@@H](C2)N3C2CC2)CC1 [Example 115, N-(2-(4-((1R,5S)-8-cyclopropyl-3,8-diazabicyclo[3.2.1]octan-3-yl)piperidine-1-yl)-5-((6-((R)-3-(3,5-difluorophenyl)isoxazolidine-2-yl)pyrimidine-4-yl)amino)-4-methoxyphenyl) acrylamide]	A (GI50 < 50 nM)
C=CC(=O)Nc1cc(Nc2cc(N3OCC[C@@H]3c3ccc(F)cc3)ncn2)c(OC)cc1N1CCC(N2CC[C@@H](N(C)C)C2)CC1 [compound 810, N-(2-(4-((R)-3-(dimethylamino)pyrolidine-1-yl)piperidine-1-yl)-5-((6-((R)-3-(4-fluorophenyl)isoxazolidine-2-yl)pyrimidine-4-yl)amino)-4-methoxyphenyl) acrylamide]	A (GI50 < 50 nM)
C#Cc1cccc([C@H]2CCON2c2cc(Nc3cc(NC(=O)C=C)c(N4CCN(CC)CC4)cc3OC)ncn2)c1 [compound 648, N-(2-(4-ethylpiperazine-1-yl)-5-((6-((R)-3-(3-ethynylphenyl)isoxazolidine-2-yl)pyrimidine-4-yl)amino)-4-methoxyphenyl) acrylamide]	A (GI50 < 50 nM)
C=CC(=O)Nc1cc(Nc2cc(N3OCC[C@@H]3c3c(F)ccc(F)c3Cl)ncn2)c(OC)cc1N1CCC(N2CCN(C3CC3)[C@@H](C)C2)CC1 [compound 934, N-(5-((6-((R)-3-(2-chloro-3,6-difluorophenyl)isoxazolidine-2-yl)pyrimidine-4-yl)amino)-2-(4-((S)-4-cyclopropyl-3-methylpiperazine-1-yl)piperidine-1-yl)-4-methoxyphenyl) acrylamide]	A (GI50 < 50 nM)
C=CC(=O)Nc1cc(Nc2cc(N3OCC[C@@H]3c3ccccc3)ncn2)c(OC)cc1N1CCC(N2C[C@@H](C)O[C@@H](C)C2)CC1 [Example 285, N-(2-(4-((2S,6R)-2,6-dimethylmorpholino)piperidine-1-yl)-4-methoxy-5-((6-((R)-3-phenylisoxazolidine-2-yl)pyrimidine-4-yl)amino)phenyl) acrylamide]	A (GI50 < 50 nM)
C=CC(=O)Nc1cc(Nc2cc(N3OCC[C@@H]3c3cccc(C#N)c3)ncn2)c(OC)cc1N1CCC(N2C[C@@H]3C[C@H]2CO3)CC1 [compound 493, N-(2-(4-((1S,4S)-2-oxa-5-azabicyclo[2.2.1]heptane-5-yl)piperidine-1-yl)-5-((6-((R)-3-(3-cyanophenyl)isoxazolidine-2-yl)pyrimidine-4-yl)amino)-4-methoxyphenyl) acrylamide]	B (50 nM ≤ GI50 < 500 nM)
C=CC(=O)Nc1cc(Nc2cc(N3OCC[C@@H]3c3c(F)ccc(F)c3F)ncn2)c(OC)cc1N1CCC(N2CCN(C(C)C)CC2)CC1 [compound 643, N-(2-(4-(4-isopropylpiperazine-1-yl)piperidine-1-yl)-4-methoxy-5-((6-((R)-3-(2,3,6-trifluorophenyl)isoxazolidine-2-yl)pyrimidine-4-yl)amino)phenyl)acrylamide]	A (GI50 < 50 nM)
C=CC(=O)Nc1cc(Nc2cc(N3OCC[C@@H]3c3cccc(F)c3)ncn2)c(OC)cc1N1CC[C@H](N(C)C)C1 [compound 839, N-(2-((S)-3-(dimethylamino)pyrolidine-1-yl)-5-((6-((R)-3-(3-fluorophenyl)isoxazolidine-2-yl)pyrimidine-4-yl)amino)-4-methoxyphenyl) acrylamide]	A (GI50 < 50 nM)
C=CC(=O)Nc1cc(Nc2cc(N3OCC[C@@H]3c3ccc(F)c(Cl)c3)ncn2)c(OC)cc1N1CCC(N2CCN(C3CC3)[C@@H](C)C2)CC1 [Example 177, N-(5-((6-((R)-3-(3-chloro-4-fluorophenyl)isoxazolidine-2-yl)pyrimidine-4-yl)amino)-2-(4-((S)-4-cyclopropyl-3-methylpiperazine-1-yl)piperidine-1-yl)-4-methoxyphenyl) acrylamide]	A (GI50 < 50 nM)
C=CC(=O)Nc1cc(Nc2cc(N3OCC[C@@H]3c3cccc(C#N)c3)ncn2)c(OC)cc1N1CCC(N2CCC(F)(F)CC2)CC1 [compound 433, N-(5-((6-((R)-3-(3-cyanophenyl)isoxazolidine-2-yl)pyrimidine-4-yl)amino)-2-(4,4-difluoro-[1,4'-bipiperidine]-1'-yl)-4-methoxyphenyl) acrylamide]	A (GI50 < 50 nM)
C=CC(=O)Nc1cc(Nc2cc(N3OCC[C@@H]3Cc3cccc(Cl)c3C)ncn2)c(OC)cc1N1CCC(N2C[C@H]3C[C@@H]2CO3)CC1 [compound 1030, N-(2-(4-((1R,4R)-2-oxa-5-azabicyclo [2.2.1]heptane-5-yl)piperidine-1-yl)-5-((6-((S)-3-(3-chloro-2-methylbenzyl)isoxazolidine-2-yl)pyrimidine-4-yl)amino)-4-methoxyphenyl) acrylamide]	A (GI50 < 50 nM)
C=CC(=O)Nc1cc(Nc2cc(N3OCC[C@@H]3c3cccc(Cl)c3)ncn2)c(OC)cc1N1CCC(N2CCN(C(C)C)CC2)CC1 [compound 461, N-(5-((6-((R)-3-(3-chlorophenyl)isoxazolidine-2-yl)pyrimidine-4-yl)amino)-2-(4-(4-isopropylpiperazine-1-yl)piperidine-1-yl)-4-methoxyphenyl) acrylamide]	A (GI50 < 50 nM)
C=CC(=O)Nc1cc(Nc2cc(N3OCC[C@@H]3c3ccc(Cl)c(F)c3)ncn2)c(OC)cc1N1CCN(C2COC2)CC1 [compound 801, N-(5-((6-((R)-3-(4-chloro-3-fluorophenyl)isoxazolidine-2-yl)pyrimidine-4-yl)amino)-4-methoxy-2-(4-(oxetane-3-yl)piperazine-1-yl)phenyl)acrylamide]	A (GI50 < 50 nM)
C=CC(=O)Nc1cc(Nc2cc(N3OCC[C@@H]3c3ccccc3)ncn2)c(OC)cc1N1CCC(N2CCN(CC3CC3)CC2)CC1 [Example 91, N-(2-(4-(4-(cyclopropylmethyl)piperazine-1-yl)piperidine-1-yl)-4-methoxy-5-((6-((R)-3-phenylisoxazolidine-2-yl)pyrimidine-4-yl)amino)phenyl)acrylamide]	A (GI50 < 50 nM)
C=CC(=O)Nc1cc(Nc2cc(N3OCC[C@@H]3Cc3cccc(N(C)C)c3)ncn2)c(OC)cc1N1CCC(N2C[C@@H]3C[C@H]2CO3)CC1 [compound 1048, N-(2-(4-((1S,4S)-2-oxa-5-azabicyclo [2.2.1]heptane-5-yl)piperidine-1-yl)-5-((6-((S)-3-(3-(dimethylamino)benzyl)isoxazolidine-2-yl)pyrimidine-4-yl)amino)-4-methoxyphenyl) acrylamide]	B (50 nM ≤ GI50 < 500 nM)
C=CC(=O)Nc1cc(Nc2cc(N3OCC[C@@H]3c3cccc(Cl)c3)ncn2)c(OC)cc1N1CCN(CC)CC1 [compound 411, N-(5-((6-((R)-3-(3-chlorophenyl)isoxazolidine-2-yl)pyrimidine-4-yl)amino)-2-(4-ethylpiperazine-1-yl)-4-methoxyphenyl) acrylamide]	A (GI50 < 50 nM)
C=CC(=O)Nc1cc(Nc2cc(N3OCC[C@@H]3c3cccc(C#N)c3)ncn2)c(OC)cc1N1CCN(C)CC1 [compound 393, N-(5-((6-((R)-3-(3-cyanophenyl)isoxazolidine-2-yl)pyrimidine-4-yl)amino)-4-methoxy-2-(4-methylpiperazine-1-yl)phenyl)acrylamide]	B (50 nM ≤ GI50 < 500 nM)
C=CC(=O)Nc1cc(Nc2cc(N3OCC[C@@H]3Cc3cccc(F)c3C)ncn2)c(OC)cc1N1CCC(N2CCN(C3CC3)[C@@H](C)C2)CC1 [compound 1005, N-(2-(4-((S)-4-cyclopropyl-3-methylpiperazine-1-yl)piperidine-1-yl)-5-((6-((S)-3-(3-fluoro-2-methylbenzyl)isoxazolidine-2-yl)pyrimidine-4-yl)amino)-4-methoxyphenyl) acrylamide]	A (GI50 < 50 nM)
C=CC(=O)Nc1cc(Nc2cc(N3OCC[C@@H]3c3ccccc3)ncn2)c(OC)cc1N1CCC(N2C[C@H]3C[C@@H]2CO3)CC1 [Example 53, N-(2-(4-((1R,4R)-2-oxa-5-azabicyclo[2.2.1]heptane-5-yl)piperidine-1-yl)-4-methoxy-5-((6-((R)-3-phenylisoxazolidine-2-yl)pyrimidine-4-yl)amino)phenyl) acrylamide]	A (GI50 < 50 nM)
C=CC(=O)Nc1cc(Nc2cc(N3OCC[C@@H]3c3ccc(Cl)cc3F)ncn2)c(OC)cc1N1CCC(N2CCC(N(C)C)CC2)CC1 [compound 410, N-(5-((6-((R)-3-(4-chloro-2-fluorophenyl)isoxazolidine-2-yl)pyrimidine-4-yl)amino)-2-(4-(dimethylamino)-[1,4'-bipiperidine]-1'-yl)-4-methoxyphenyl) acrylamide]	B (50 nM ≤ GI50 < 500 nM)
C=CC(=O)Nc1cc(Nc2cc(N3OCC[C@@H]3c3ccc(F)c(F)c3)ncn2)c(OC)cc1N1CCC(N2C[C@@H](C)O[C@@H](C)C2)CC1 [compound 543, N-(5-((6-((R)-3-(3,4-difluorophenyl)isoxazolidine-2-yl)pyrimidine-4-yl)amino)-2-(4-((2S,6R)-2,6-dimethylmorpholino)piperidine-1-yl)-4-methoxyphenyl) acrylamide]	A (GI50 < 50 nM)

Source: patent publication US12157730B2, “Heteroaryl derivative, method for producing same, and pharmaceutical composition comprising same as effective component” (VORONOI INC., priority 2019, dated 2024)
